Assays:
HMC-1α155 cells = assay: Mastocytoma cell line proliferation (WST-1), HMC-1α155; type: cell-based; conditions: Homo sapiens, 48 h; 2 days; KIT juxtamembrane mutation
Protocol: (§1) (B) western blotting analysis of HMC-1α155 tyrosine phosphorylation. […] (D) Western blotting analysis of BMMC tyrosine phosphorylation. Cell proliferation was assessed by WST-1 colorimetric assay. […] MW = molecular weight.

Hck = biological target: T1, Hck (Homo sapiens, UniProt P08631); assay: Recombinant kinase ELISA assay, Hck; type: biochemical; conditions: recombinant human enzyme; ELISA-based assay, poly(Glu,Tyr 4:1) substrate
T1 construct: Hck (2-526; BC014435); 6xHN (N); made in house; host or cells: baculovirus, Sf9 insect cells
T1 sequence (P08631 23-526 limits assumed): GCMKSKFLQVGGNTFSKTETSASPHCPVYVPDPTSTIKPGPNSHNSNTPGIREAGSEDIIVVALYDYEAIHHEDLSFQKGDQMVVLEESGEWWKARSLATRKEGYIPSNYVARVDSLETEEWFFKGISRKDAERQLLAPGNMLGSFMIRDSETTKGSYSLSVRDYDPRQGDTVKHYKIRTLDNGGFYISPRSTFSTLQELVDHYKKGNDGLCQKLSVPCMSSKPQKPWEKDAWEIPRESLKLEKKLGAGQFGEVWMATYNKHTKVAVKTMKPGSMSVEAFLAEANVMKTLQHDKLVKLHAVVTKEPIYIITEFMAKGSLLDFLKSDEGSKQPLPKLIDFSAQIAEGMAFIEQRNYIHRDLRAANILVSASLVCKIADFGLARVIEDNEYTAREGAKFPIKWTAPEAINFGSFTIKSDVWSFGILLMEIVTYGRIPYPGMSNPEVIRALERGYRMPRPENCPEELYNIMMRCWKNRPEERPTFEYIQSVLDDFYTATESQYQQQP
Protocol: (§2) Full details for the generation of recombinant human KIT intracellular domain and other protein kinases (including Lyn, platelet derived growth factor receptor β, epidermal growth factor receptor, fibroblast growth factor receptor 1, Src, HCK, PYK, FES, Btk, Bmx, c-Ret, c-Fms, Syk, and c-Met) are provided in the Supplemental Methods (see Supporting Information; Methods S1). Experiments on ABL1, Akt1, protein kinase C-α, insulin-like growth factor receptor 1, and Pim1 were carried out by Proqinase (Germany). All other recombinant protein kinases were performed in-house using an enzyme-linked immunoassay; experimental details are provided in the Supplemental Methods (see Supporting Information; Methods S1).
(§3) The sequences encoding PDGF receptor β (residues 554–1106; GenBank accession no. BC032224), Lyn B (2–583; accession no. BC059394), fibroblast growth factor receptor 1 (572–959; accession no. BC018128), Src (2–536; accession no. BC011566), Btk (2–659; accession no. BC109079), Bmx (2–675; accession no. BC016652), c-Ret (713–1114; accession no. BC004257), c-Fms (538–972; BC047531), Syk (2–612; BC011399), Hck (2-526; accession no. BC014435), Fes (2-822; accession no. BC035357), PYK2 (2-1006; accession no. BC042599) and c-Met (949–1398; accession no. lifeseq3489592) were amplified by PCR from IMAGE cDNA clones purchased from Openbiosystems. […]

Btk = biological target: T2, Btk (Homo sapiens, UniProt Q06187); assay: Recombinant kinase ELISA assay, Btk; type: biochemical; conditions: recombinant human enzyme; ELISA-based assay, poly(Glu,Tyr 4:1) substrate
T2 construct: Btk (2–659; BC109079); 6xHN (N); made in house; host or cells: baculovirus, Sf9 insect cells
Protocol: as §2, §3

Bmx = biological target: T3, Bmx (Homo sapiens, UniProt P51813); assay: Recombinant kinase ELISA assay, Bmx; type: biochemical; conditions: recombinant human enzyme; ELISA-based assay, poly(Glu,Tyr 4:1) substrate
T3 construct: Bmx (2–675; BC016652); 6xHN (N); made in house; host or cells: baculovirus, Sf9 insect cells
T3 sequence (P51813 2-675): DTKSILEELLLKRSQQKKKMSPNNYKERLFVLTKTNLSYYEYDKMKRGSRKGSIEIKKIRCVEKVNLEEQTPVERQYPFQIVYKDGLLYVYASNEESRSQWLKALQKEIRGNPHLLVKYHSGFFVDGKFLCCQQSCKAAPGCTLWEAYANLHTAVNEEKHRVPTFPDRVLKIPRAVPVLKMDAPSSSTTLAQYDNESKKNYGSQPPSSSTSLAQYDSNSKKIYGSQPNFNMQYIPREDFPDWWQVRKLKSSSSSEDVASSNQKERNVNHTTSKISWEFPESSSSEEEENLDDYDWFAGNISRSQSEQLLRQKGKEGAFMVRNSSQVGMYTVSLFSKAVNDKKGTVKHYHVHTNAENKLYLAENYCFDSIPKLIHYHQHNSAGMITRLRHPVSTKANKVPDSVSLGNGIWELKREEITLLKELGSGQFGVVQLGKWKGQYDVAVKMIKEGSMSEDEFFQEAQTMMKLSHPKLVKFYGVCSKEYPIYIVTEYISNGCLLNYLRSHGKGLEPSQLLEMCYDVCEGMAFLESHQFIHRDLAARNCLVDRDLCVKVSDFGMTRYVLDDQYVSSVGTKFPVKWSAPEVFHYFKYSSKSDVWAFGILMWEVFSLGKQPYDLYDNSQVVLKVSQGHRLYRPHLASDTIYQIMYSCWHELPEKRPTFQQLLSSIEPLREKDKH
Protocol: as §2, §3

Fes = biological target: T4, Fes (Homo sapiens, UniProt P07332); assay: Recombinant kinase ELISA assay, Fes; type: biochemical; conditions: recombinant human enzyme; ELISA-based assay, poly(Glu,Tyr 4:1) substrate
T4 construct: Fes (2-822; BC035357); 6xHN (N); made in house; host or cells: baculovirus, Sf9 insect cells
Protocol: as §2, §3

VEGFR1 = VEGFR1 (Homo sapiens, UniProt P17948); assay: Recombinant kinase ELISA assay, VEGFR1; type: biochemical; conditions: recombinant human enzyme; ELISA-based assay, poly(Glu,Tyr 4:1) substrate
Protocol: as §2
(§4) A 96-well microtitre plate (Immulon 2HB; ThermoLifeScience, Finland) was coated overnight with 0.25 mg/ml poly(Glu,Tyr 4:1), rinsed twice with 250 µl of washing buffer (10 mM phosphate-buffered saline [pH 7.4] and 0.05% Tween 20) and dried for 2 hours at room temperature. […] Reactions were initiated upon introduction of the enzyme and terminated with the addition of one reaction volume (50 μl) of 100 mM EDTA per 5 M urea mix. […] The final reaction product was quantified by spectrophotometry at 450 nm.

[1] = test system: cultured human lymphocytes; assay: Chromosome aberration test in cultured human lymphocytes; type: cell-based; conditions: our unpublished results
primary BMMCs = assay: IL-3-stimulated proliferation of primary BMMCs; type: cell-based, mice; conditions: Mus musculus, BMMC, primary murine BMMCs
Protocol: as §1

[2] = test system: murine bone marrow mast cell (BMMC); assay: Transwell migration of BMMC in response to rmSCF; type: cell-based; conditions: Mus musculus, 4 hours, read-out: inhibition of migration of SCF-stimulated BMMCs relative to the control
Protocol: Migration of murine BMMCs was evaluated using a transwell migration assay [35]. […] Filters were then placed in wells containing 600 µL of chemotaxis buffer supplemented with or without 10 ng/mL of rmSCF, for stimulated or unstimulated BMMCs, respectively. After 4 hours incubation at 37°C in 5% CO2, cells from the bottom chamber were resuspended and counted using a FACS Scan over 20 seconds. All assays were performed in triplicate and counts were repeated twice for each well. For tyrosine kinase inhibitor treatment, 1×10^7 mast cells were pretreated for 1.5 hours at 37°C in complete medium (OPTI MEM, 10% foetal calf serum (FCS), 1% antibiotics and 2-mercaptoethanol 5×10^−5 M, 10 ng/ml rIL3) either with 1 µM of inhibitor or an equivalent volume of DMSO.

Lyn B = biological target: T5, Lyn B (Homo sapiens, UniProt P07948); assay: Recombinant kinase ELISA assay, Lyn B; type: biochemical; conditions: recombinant human enzyme; ELISA-based assay, poly(Glu,Tyr 4:1) substrate
T5 construct: Lyn B (2–583; BC059394); 6xHN (N); made in house; host or cells: baculovirus, Sf9 insect cells
T5 sequence (P07948 2-491 isoform P07948-2 limits assumed): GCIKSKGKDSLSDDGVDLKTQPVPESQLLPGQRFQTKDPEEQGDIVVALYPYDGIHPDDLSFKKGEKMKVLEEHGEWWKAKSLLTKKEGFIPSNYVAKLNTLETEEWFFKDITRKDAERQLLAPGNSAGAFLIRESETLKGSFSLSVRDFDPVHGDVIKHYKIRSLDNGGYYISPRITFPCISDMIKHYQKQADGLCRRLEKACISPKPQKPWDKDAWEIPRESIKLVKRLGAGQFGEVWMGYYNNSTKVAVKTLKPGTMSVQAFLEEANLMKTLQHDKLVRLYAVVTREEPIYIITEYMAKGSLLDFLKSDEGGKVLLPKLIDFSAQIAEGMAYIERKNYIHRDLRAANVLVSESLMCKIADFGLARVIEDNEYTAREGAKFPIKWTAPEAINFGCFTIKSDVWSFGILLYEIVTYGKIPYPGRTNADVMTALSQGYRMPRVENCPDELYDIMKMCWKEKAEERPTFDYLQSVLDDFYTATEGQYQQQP
Protocol: as §2

Pim1 = biological target: T6, Pim1 (Homo sapiens, UniProt P11309); assay: Recombinant kinase screen (Proqinase), Pim1; type: biochemical; conditions: recombinant human enzyme; single experiment, kinase screen by Proqinase
T6 construct: purchased Proqinase (Germany)
T6 sequence (P11309 whole entry): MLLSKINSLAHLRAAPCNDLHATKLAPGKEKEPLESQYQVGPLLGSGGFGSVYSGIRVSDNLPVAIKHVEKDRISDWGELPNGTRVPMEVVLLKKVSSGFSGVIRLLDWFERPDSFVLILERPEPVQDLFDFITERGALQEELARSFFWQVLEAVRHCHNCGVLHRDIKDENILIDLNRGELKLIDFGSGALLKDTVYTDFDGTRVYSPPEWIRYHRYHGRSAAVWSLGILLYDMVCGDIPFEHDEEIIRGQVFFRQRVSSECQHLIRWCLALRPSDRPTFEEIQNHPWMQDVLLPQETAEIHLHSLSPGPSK
Protocol: as §2

[3] = biological target: Fibroblast growth factor receptor 3 (Homo sapiens, UniProt P22607); assay: Recombinant kinase ELISA assay, FGFR3; type: biochemical; conditions: recombinant human enzyme; ELISA-based assay, poly(Glu,Tyr 4:1) substrate
Fibroblast growth factor receptor 3, sequence (P22607 23-806): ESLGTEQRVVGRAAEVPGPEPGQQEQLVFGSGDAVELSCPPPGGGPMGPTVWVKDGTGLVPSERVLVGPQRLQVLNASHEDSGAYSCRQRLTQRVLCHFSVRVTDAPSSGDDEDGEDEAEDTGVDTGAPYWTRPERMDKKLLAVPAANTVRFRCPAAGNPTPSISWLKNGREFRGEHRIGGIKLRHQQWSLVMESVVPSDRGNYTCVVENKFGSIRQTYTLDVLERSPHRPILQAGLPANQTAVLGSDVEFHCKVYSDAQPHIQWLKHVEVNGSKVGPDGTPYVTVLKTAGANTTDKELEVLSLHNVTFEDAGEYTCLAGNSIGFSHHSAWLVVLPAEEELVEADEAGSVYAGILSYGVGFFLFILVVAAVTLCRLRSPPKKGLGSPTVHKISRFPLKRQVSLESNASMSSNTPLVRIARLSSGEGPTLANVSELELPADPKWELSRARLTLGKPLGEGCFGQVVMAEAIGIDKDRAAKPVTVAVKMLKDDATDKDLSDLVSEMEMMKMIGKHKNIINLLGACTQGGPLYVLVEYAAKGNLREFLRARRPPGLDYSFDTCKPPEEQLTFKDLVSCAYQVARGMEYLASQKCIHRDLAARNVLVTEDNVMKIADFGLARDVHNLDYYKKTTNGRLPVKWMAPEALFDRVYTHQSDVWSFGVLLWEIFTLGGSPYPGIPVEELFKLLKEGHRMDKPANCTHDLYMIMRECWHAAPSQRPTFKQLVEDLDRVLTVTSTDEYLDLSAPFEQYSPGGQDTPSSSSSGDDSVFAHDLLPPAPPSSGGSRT
Protocol: as §2, §4

PDGFRβ = PDGFRβ (Homo sapiens, UniProt P09619); assay: Ba/F3 cell proliferation (WST-1), PDGFRβ; set-up: expressed in transfected cells; host or cells: Ba/F3 (general description of the cell system; not repeated for this kinase); conditions: Ba/F3 cells expressing the enzyme, read-out: Cell-based assay IC50, PDGFRβ
PDGFRβ, sequence (P09619 33-1106): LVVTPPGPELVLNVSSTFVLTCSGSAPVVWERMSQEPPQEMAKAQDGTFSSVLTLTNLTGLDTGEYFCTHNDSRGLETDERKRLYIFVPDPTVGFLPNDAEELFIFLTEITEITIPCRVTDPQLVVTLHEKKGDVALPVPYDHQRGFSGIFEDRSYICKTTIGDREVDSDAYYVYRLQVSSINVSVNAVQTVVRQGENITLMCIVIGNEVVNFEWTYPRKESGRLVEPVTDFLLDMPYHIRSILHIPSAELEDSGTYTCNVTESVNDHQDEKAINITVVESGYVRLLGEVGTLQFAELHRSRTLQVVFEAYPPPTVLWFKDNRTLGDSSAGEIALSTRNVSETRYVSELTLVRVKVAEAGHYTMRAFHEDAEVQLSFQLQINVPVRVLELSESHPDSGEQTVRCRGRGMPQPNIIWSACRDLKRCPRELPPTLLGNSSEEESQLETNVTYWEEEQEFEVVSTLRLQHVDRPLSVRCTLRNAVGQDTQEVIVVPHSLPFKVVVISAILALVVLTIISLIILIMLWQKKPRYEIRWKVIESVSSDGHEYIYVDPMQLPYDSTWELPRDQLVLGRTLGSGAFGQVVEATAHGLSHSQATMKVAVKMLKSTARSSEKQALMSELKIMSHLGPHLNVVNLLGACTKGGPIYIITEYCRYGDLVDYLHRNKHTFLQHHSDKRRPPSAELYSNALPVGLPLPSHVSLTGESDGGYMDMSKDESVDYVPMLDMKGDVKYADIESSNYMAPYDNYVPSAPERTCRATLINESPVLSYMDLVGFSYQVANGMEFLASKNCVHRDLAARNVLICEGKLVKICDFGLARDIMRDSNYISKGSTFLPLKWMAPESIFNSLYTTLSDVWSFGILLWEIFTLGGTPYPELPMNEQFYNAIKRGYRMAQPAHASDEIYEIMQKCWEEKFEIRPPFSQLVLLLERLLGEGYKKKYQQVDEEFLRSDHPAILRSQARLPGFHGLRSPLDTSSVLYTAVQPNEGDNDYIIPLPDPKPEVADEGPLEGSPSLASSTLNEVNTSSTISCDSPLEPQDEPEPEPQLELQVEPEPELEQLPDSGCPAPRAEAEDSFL

Jak2 = Jak2 (Homo sapiens, UniProt O60674); assay: Recombinant kinase screen (Proqinase), Jak2; type: biochemical; conditions: recombinant human enzyme; single experiment, kinase screen by Proqinase
Flt3 = Flt3 (Homo sapiens, UniProt P36888); assay: Recombinant kinase ELISA assay, Flt3; type: biochemical; conditions: recombinant human enzyme; ELISA-based assay, poly(Glu,Tyr 4:1) substrate
Protocol: as §2

[4] = biological target: Fibroblast growth factor receptor 1 (Homo sapiens, UniProt P11362); assay: Ba/F3 cell proliferation (WST-1), FGFR1; set-up: expressed in transfected cells; host or cells: Ba/F3 (general description; not repeated for this kinase); conditions: Ba/F3 cells expressing the enzyme, read-out: Cell-based assay IC50, Fibroblast growth factor receptor 1
Fibroblast growth factor receptor 1, sequence (P11362 22-822): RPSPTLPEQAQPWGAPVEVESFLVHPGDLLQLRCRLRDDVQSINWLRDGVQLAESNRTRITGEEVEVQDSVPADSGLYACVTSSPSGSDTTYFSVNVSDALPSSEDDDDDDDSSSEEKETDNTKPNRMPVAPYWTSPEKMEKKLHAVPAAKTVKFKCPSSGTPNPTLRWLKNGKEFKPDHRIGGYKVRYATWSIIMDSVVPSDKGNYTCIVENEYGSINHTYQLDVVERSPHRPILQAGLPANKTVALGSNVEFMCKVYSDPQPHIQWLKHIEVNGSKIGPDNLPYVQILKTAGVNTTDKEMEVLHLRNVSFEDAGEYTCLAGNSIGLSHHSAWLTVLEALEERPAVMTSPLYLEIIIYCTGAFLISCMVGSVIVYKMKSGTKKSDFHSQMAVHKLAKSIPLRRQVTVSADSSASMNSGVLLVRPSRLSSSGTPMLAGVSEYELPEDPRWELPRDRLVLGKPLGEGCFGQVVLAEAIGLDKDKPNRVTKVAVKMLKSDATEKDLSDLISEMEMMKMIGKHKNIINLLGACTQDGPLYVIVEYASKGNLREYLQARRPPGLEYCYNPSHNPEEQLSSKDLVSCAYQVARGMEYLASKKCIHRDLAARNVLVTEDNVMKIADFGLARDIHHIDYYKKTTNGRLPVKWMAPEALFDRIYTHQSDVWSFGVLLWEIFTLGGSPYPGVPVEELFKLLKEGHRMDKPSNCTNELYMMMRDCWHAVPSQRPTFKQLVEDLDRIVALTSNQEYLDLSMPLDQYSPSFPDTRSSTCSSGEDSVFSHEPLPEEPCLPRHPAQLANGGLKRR

For `CS(=O)(=O)O.CS(=O)(=O)O.Cc1ccc(NC(=O)c2ccc(CN3CCN(C)CC3)cc2)cc1Nc1nc(-c2cccnc2)cs1` [masitinib, 4-(4-methylpiperazin-1-ylmethyl)-N-[4-methyl-3-(4-pyridin-3ylthiazol-2-ylamino)phenyl]benzamide-mesylate methane sulfonic acid salt], the IC50 (HMC-1α155 cells) was ~0.01 µM, the IC50 (Hck) was 2 ± 0.2 µM and the IC50 (Btk) was > 10 µM. For the same compound, the IC50 (Bmx) was > 10 µM, the IC50 (Fes) was > 10 µM and the IC50 (VEGFR1) was > 10 µM. The chromosome aberrations [1] was “does not cause chromosome aberrations”, the IC50 (primary BMMCs) was > 10 µM and the inhibition at 1 µM [2] was ~79.6%. For the same compound, the IC50 (Lyn B) was 0.51 ± 0.13 µM, the IC50 (Pim1) was > 10 µM and the IC50 [3] was > 10 µM. The IC50 (PDGFRβ) was 0.05 ± 0.02 µM, the IC50 (Jak2) was > 10 µM and the IC50 (Flt3) was > 10 µM. The IC50 [4] was 7 ± 1.9 µM.
